Source: ChEMBL document CHEMBL5329190, “Screening and optimization of phage display cyclic peptides against the WDR5 WBM site” (RSC Med Chem, 2023)

biological target: WD repeat-containing protein 5 (Homo sapiens, UniProt P61964); experiment: Binding affinity to his sumo tagged N-terminal WDR5 (23 to […] residues) (unknown origin) incubated for 3 hrs by HTRF binding assay

Row | IC50 [µM] | Compound
1 | > 100 | CC(C)[C@H](NC(=O)[C@H](CC(=O)O)NC(=O)[C@H](C)NC(=O)[C@H](CCC(=O)O)NC(=O)CNC(=O)[C@H](CCC(=O)O)NC(=O)CNC(=O)[C@@H](N)CS)C(=O)N[C@@H](CS)C(=O)O
2 | > 100 | NCCCC[C@H](NC(=O)[C@H](Cc1c[nH]c2ccccc12)NC(=O)[C@H](CCC(N)=O)NC(=O)[C@H](CC(N)=O)NC(=O)[C@@H]1CCCN1C(=O)[C@@H](N)CS)C(=O)N[C@@H](CO)C(=O)N[C@@H](Cc1ccc(O)cc1)C(=O)N[C@@H](CS)C(=O)O
3 | > 100 | CC(C)C[C@H](NC(=O)[C@H](Cc1ccccc1)NC(=O)[C@@H](N)CS)C(=O)N[C@@H](CC(N)=O)C(=O)N[C@H](C(=O)N[C@@H](CO)C(=O)N[C@@H](CC(N)=O)C(=O)N[C@@H](C)C(=O)N[C@@H](CS)C(=O)O)C(C)C
